Reference: patent US20250002450A1, “CATIONIC STEROID COMPOUNDS, METHOD OF OBTAINING THEREOF, FORMULATIONS COMPRISING THEREOF AND THEIR USES” (UNIVERSIDADE DO PORTO, priority 2021, published 2025)
Converted amounts (≈) assume the structure as drawn. Where two headings read alike, the source gives them in different places.

What was measured:
[1] = system: A. fumigatus C111; assay: Antifungal MIC/MLC (broth microdilution); assay type: cell-based, Aspergillus fumigatus; details: A. fumigatus C111, resistant to azoles
Experimental: The antifungal activity of compound 1 was evaluated for a wide range of fungal species, covering yeasts and filamentous fungi, including dermatophytes. […] This antimicrobial effect was fungicidal, with minimal lethal concentrations (MLC) being equal to, or one or two-fold higher than the respective MIC. Twenty-three fungal strains were used in this study, including reference strains and clinical isolates of yeasts and filamentous fungi. Yeast strains included reference strains (ATCC—American Type Culture Collection and CECT—Colección Española de Cultivos Tipo) and clinical isolates: C. albicans ATCC 10231, Candida krusei ATCC 6258, C. albicans H37, C. albicans FF172, C. albicans FF176, C. albicans DSY294, C. albicans DSY296, C. glabrata DSY562, C. glabrata DSY565 and Cryptococcus neoformans CECT 1078. Filamentous fungi included Aspergillus fumigatus ATCC 240305, A. fumigatus C111, A. niger ATCC 16404, A. flavus F44, Fusarium solani FF125, F. oxysporum FF115, and dermatophytes Trichophyton rubrum FF5, T. mentagrophytes FF7, Microscoporum canis FF1 and Nannizzia gypsea FF3 (formerly Microsporum gypseum) and a species of genera Mucor, Lichetheimia and Scedosporium. Saprolegnia parasitica CBS 223.65, a reference strain of an oomycete fish pathogen, was also included. All microorganisms were kept in Sabouraud Dextrose Broth (SDB: BioMérieux, Marcy L'Etoile, France) plus glycerol (20%) at −80° C. The strains were kept in Sabouraud Dextrose Agar (SDA: BioMérieux, Marcy L'Etoile, France) slants and were sub-cultured in SDA before each test. S. parasitica was kept in Corn Meal Agar plates (CMA: BBL™ Corn Meal Agar, BD, Le Pont-de-Claix, France) and was sub-cultured in CMA before each experiment. C. albicans H37, was kindly provided by Cidilia Pina Vaz (CHSJ, Porto, Portugal) and C. albicans DSY294, C. albicans DSY296, C. glabrata DSY562, C. glabrata DSY565 were kindly provided by D. Sanglard (University of Lausanne, Switzerland). A stock solution of compound 1 (10 mg/mL), was prepared in dimethyl sulfoxide (DMSO 99%: Alfa Aesar, Kandel, Germany), kept at −20 degrees C., and freshly diluted in the appropriate culture media before each assay. In all experiments, in-test concentrations of DMSO were kept below 2%. Fluconazole (Alfa Aesar, Ward Hill, MA, USA) was tested as commercial antifungal.
Antifungal activity was evaluated by determining the MIC of compound 1 by the broth microdilution method, according to CLSI guidelines (reference documents M27-A3 for yeasts and M38-A2 for filamentous fungi). […] The minimal lethal concentration (MLC) was determined by spreading 20 μL of culture collected from wells showing no visible growth on SDA plates. The MLC was determined as the lowest concentration showing complete growth inhibition after 48 h at 35 degrees C., 48 h at 25 degrees C. […]

[2] = system: C. albicans ATCC 10231; assay: Mitochondrial dehydrogenases activity, MTT reduction assay; assay type: cell-based, Candida albicans; details: 2 h
Experimental: In order to determine whether compound 1 could also affect mitochondrial function, MTT reduction assay was performed. In this assay, tetrazolium salts are reduced to purple formazan derivatives by mitochondrial dehydrogenases, which can be measured spectrophotometrically and reported to mitochondrial activity and, indirectly, to cell viability. In this assay, cells were exposed to the test compounds for 2 h ([FIG. 11]). […] An increase in reactive oxygen species (ROS) has been linked to azoles activity: even though their primary mode of action is the inhibition of ergosterol synthesis, they also induce accumulation of ROS, which enhances their antifungal activity and translates into an increase in mitochondrial activity at inhibitory concentrations. […] Mitochondrial dehydrogenase activity was evaluated by the MTT assay, as previously described, with some modifications. Cell suspensions of C. albicans ATCC 10231 were prepared in the same manner as described above and, after overnight incubation at 36° C., were centrifuged at 3500 rpm for 15 min, the supernatant was removed, and the cells were carefully resuspended in 2 mL of RPMI. Test conditions and controls were the same as described above, but the time of exposure to the test compounds was 2 h. After the exposure time, cell suspensions were centrifuged at 3500 rpm for 10 min, the supernatant was removed, and 500 μL of MTT solution (0.5 mg/mL in RPMI, at 35° C.) (Thiazolyl Blue Tetrazolium Bromide, Alfa Aesar, Ward Hill, MA, USA) were added. After a 1 h incubation at 35° C., the insoluble formazan product resulting from the conversion of MTT by mitochondrial dehydrogenases of metabolically active cells was solubilized with 300 μL of DMSO. 100 μL of each sample were transferred in duplicate to a microtiter plate and the extent of the reduction of MTT to formazan was quantified by measuring the absorbance at 570 nm. Three independent assays were performed in duplicate, and the results are expressed as percentage of MTT reduction, using the untreated cells as control.

Row | Structure (SMILES) | MIC [1] | MLC [1] | mitochondrial activity (MTT reduction) vs untreated control ([2]; 128, 64, and 32 μg/mL (2×MIC, MIC, ½×MIC)) | MIC ([1]; Aspergillus fumigatus, read-out: MIC) | mitochondrial activity (MTT reduction) vs untreated control ([2]; 8 μg/mL)
1 | C[C@H](CCC(=O)NCCN)[C@H]1CC[C@H]2[C@@H]3CC[C@@H]4C[C@H](O)CC[C@]4(C)[C@H]3C[C@H](O)[C@]12C [Compound 1, (R)—N-(2-aminoethyl)-4-((3R,5R,8R,9S,10S,12S,13R,14S,17R)-3,12-dihydroxy-10,13-dimethylhexadecahydro-1H-cyclopenta[a]phenanthren-17-yl) pentanamida] | 128 µg/mL (≈ 294 µM) | >128 µg/mL | significant reduction of mitochondrial activity |  | 
2 | OC(Cn1cncn1)(Cn1cncn1)c1ccc(F)cc1F [Fluconazole, reference compound] |  | >128 µg/mL |  | ≥ 128 µg/mL | increase (non-significant)
